Results published in patent US6346529B1, “Antiviral therapy using thiazine dyes” (Oklahoma Medical Research Foundation, priority 1988, dated 2002).
Like-named read-outs stand apart in the source and are kept apart here.

How the values were obtained:
Type in all cases: cell-based
HSV-1 (F strain) = assay: HSV plaque reduction assay in Vero cells, HSV-1; conditions: read-out: Antiviral Effect: EC50 HSV-1
Protocol: (§1) HSV Preparation: Confluent HEp-2 cells, in a roller bottle (Falcon, 850 cm^2), were infected at an input multiplicity of 0.01 PFU per cell (to minimize production of defective viruses). During the two-hour absorption period, the cells were exposed to the virus inoculum diluted in absorption buffer (10 ml PBS containing 1% newborn calf serum and 0.1% glucose). The virus inoculum was then removed and replaced with Hanks' Minimum Essential Medium (MEM) containing 2% inactivated newborn calf serum, penicillin (100 U/ml) and streptomycin (100 μg/ml) (P and S), sodium bicarbonate (2 g/L) and HEPES (25 mM) (maintenance medium). The infected cells were incubated at 37° C. for 3 to 4 days, until the cells could be easily shaken from the plastic surface of the culture bottles. The cells were then collected by centrifugation, suspended in a small volume of spent culture fluid (5 ml per 2×10^8 cells) and sonicated 3 times for one min on ice. The disrupted cells were centrifuged (2,000 g for 15 min at 4° C. and the supernatant was diluted with an equal volume of sterile skimmed milk (as stabilizer) and aliquots were frozen at −70° C.
(§2) HSV Plaque Reduction Assay: Near confluent Vero (African Green Monkey) cells in 6-well plates were infected with 100 μl virus diluted in absorption buffer to give 100-200 plaques per well. The plates were then incubated at 37° C. for 1 hour with intermittent rocking every 15 minutes. The inoculum was aspirated and the compounds at different concentrations (dissolved in maintenance medium) were added to replicate wells. For these assays, 0.1% pooled human gamma globulin was included in the media. The plates were placed in 5% CO2-95% air incubator and the plaques were allowed to develop for 48 h prior to fixation (buffered 10% Formalin acetate), staining (0.5% crystal violet in 20% EtOH/H2O) and enumeration. The degree of inhibition (percent plaques of control) was calculated by counting the mean plaque counts for the different drug dilutions. […] For routine antiviral drug screening, we used the F strain of HSV-1 and the G strain of HSV-2 (Ejercito, et al., “Characterization of Herpes Simplex virus Strains Differing in Their Effect on Social Behavior of Infected Cells,” J. Gen. Virol. 2, 357-364 (1968)). […] Acyclovir (ACV) was used as a positive control for the studies on HSV.
(§3) Median-Effect Method: EC50 and IC50 values were obtained by analysis of the data using the median-effect equation (Chou, T., et al., “Quantitative Analysis of Dose-Effect Relationships: The Combined Effects of Multiple Drugs or Enzyme Inhibitors,” Adv. Enz. Regul. 22, 27-55 (1984).

HIV-1 (strain LAV-1) = assay: Inhibition of HIV-1 replication in human PBMC (supernatant RT activity); conditions: Human immunodeficiency virus 1, PBMC
Protocol: Cells: Human peripheral blood mononuclear cells (PBMC) from healthy HIV-1 seronegative and hepatitis B virus seronegative donors were isolated by Ficoll-Hypaque discontinuous gradient centrifugation at 1,000×g for 30 minutes, washed twice in phosphate-buffered saline (pH 7.2; PBS), and pelleted at 300×g for 10 minutes. Before infection, the cells were stimulated by phytohemagglutinin (PHA) at a concentration of 16.7 μg/ml, and 4 mM sodium bicarbonate buffer.
Retrovirus: HIV-1 (strain LAV-1) was obtained from Dr. P. Feorino (Centers for Disease Control, Atlanta, Ga.). The virus was propagated in human PBMC using RPMI 1640 medium, as described previously by McDougal, et al., (“Immunoassay for the detection and quantitation of infectious human retrovirus, lymphadenopathy-associated virus (LAV),” J. Immun. Meth. 76, 171-183, 1985) without PBA or fungizone and supplemented with 7% (v/v) interleukin-2 (Advanced Biotechnologies, Silver Spring, Md.), 7 μg/ml DEAE-dextran (Pharmacia, Uppsala, Sweden), and 370 U/ml anti-human leukocyte (alpha) interferon (ICN, Lisle, Ill.). Virus obtained from cell-free culture supernatant was titrated and stored in aliquots at −70° C. until use.
Inhibition of Virus Replication in Human PBMC: Uninfected PHA-stimulated human PBMC were uniformly distributed among 25 cm^2 flasks to give a 5 ml suspension containing about 2×10^6 cells/ml. Suitable dilutions of virus were added to infect the cultures. The mean reverse transcriptase (RT) activity of the inocula was 50,000 dpm/ml corresponding to about 100 TCID50, as determined by Groopman, et al., (1987), “Characterization of Serum Neutralization Response to the Human Immunodeficiency Virus (HIV),” AIDS Res. Human Retro. 3, 71-85. The drugs, at twice their final concentrations in 5 ml of RPMI 1640 medium (supplemented as described above), were added to the cultures. Uninfected and untreated PBMC at equivalent cell densities were grown in parallel as controls. The cultures were maintained in a humidified 5% CO2-95% air incubator at 37° C. for six days after infection at which point all cultures were sampled for supernatant RT activity.
RT Activity Assay: A […] aliquot of supernatant from each culture was clarified of cells at 300×g for 10 minutes. […]
The RT assay was performed in 96-well microtiter plates, as described by Spira, et al. (1987), “Micromethod for Assaying the Reverse Transcriptase of LAV-HTLV-III/Lymphadenopathy-Associated Virus,” J. Clin. Microbiol. […] Four ml of scintillation fluid (Econofluor, NEN Research Products, Boston, Mass.) were added and the amount of radioactivity in each sample was determined using a Packard Tri-Carb liquid scintillation analyzer (model 2,000CA). […]

HSV-2 (G strain) = assay: HSV plaque reduction assay in Vero cells, HSV-2; conditions: read-out: Antiviral Effect: EC50 HSV-2
Protocol: as §1, §2, §3

Row | EC50 (HSV-1 (F strain); Human alphaherpesvirus 1, Vero, dark) [nM] | EC50 (HSV-1 (F strain); Human alphaherpesvirus 1, Vero, light) [nM] | EC50 (HIV-1 (strain LAV-1); light, read-out: Antiviral Effect: EC50 HIV-1) [nM] | EC50 (HSV-2 (G strain); Human alphaherpesvirus 2, Vero, dark) [nM] | EC50 (HSV-2 (G strain); Human alphaherpesvirus 2, Vero, light) [nM] | Compound | EC50 (HSV-1 (F strain); Human alphaherpesvirus 1, Vero) [nM] | EC50 (HSV-1 (F strain); dark) [nM] | EC50 (HIV-1 (strain LAV-1); read-out: Antiviral Effect: EC50 HIV-1, dark) [nM] | EC50 (HIV-1 (strain LAV-1); read-out: Antiviral Effect: EC50 HIV-1, light) [nM] | EC50 (HSV-2 (G strain); Human alphaherpesvirus 2, Vero) [nM] | EC50 (HSV-2 (G strain); dark) [nM]
1 | 13 | 22 | > 100000 | 160 | 510 | Nc1nc2c(ncn2COCCO)c(=O)[nH]1 [ACV, Acyclovir] | – | – | – | – | – | –
2 | – | – | – | – | – | CN(C)c1ccc2nc3ccc(N(C)C)cc3[s+]c2c1.[Cl-] [MB, 3,7-Bis(dimethylamino)phenothiazin-5-ium chloride] | ≥ 10000 | ≥ 10000 | 140 | 28 | ≥ 10000 | ≥ 10000
